Legend:
Format in all cases: cell-based
[1] = system: Moraxella catarrhalis (BCA); test: MIC, two-fold agar dilution (CLSI), clinical isolates
How it was run: (§1)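 Susceptibility was tested using CLSI two-fold agar dilution against the strains examined.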

[2] = system: methicillin-resistant Staphylococcus aureus (MRSA); test: as above
How it was run: as §1

[3] = system: Escherichia coli (including ESBLs, non-ESBLs); test: as above
How it was run: as §1

[4] = system: methicillin-sensitive Staphylococcus aureus (MSSA); test: as above
How it was run: as §1

[5] = system: Enterococcus faecalis (EFA); test: as above
How it was run: as §1

[6] = system: Streptococcus pneoumoniae (SPN); test: as above
How it was run: as §1

[7] = system: methicillin-resistant Staphylococcus epidermidis (MRSE); test: as above
How it was run: as §1

[8] = system: Enterococcus faecium (EFM); test: as above
How it was run: as §1

[9] = system: methicillin-sensitive Staphylococcus epidermidis (MSSE); test: as above
How it was run: as §1

[10] = system: Hela cervical cancer cell line; test: CCK-8 proliferation inhibition; settings: Homo sapiens, 72 hours
How it was run: (§2)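 Plating at 2000 cells/well, then incubation overnight at 37° C. Next, a range of compound concentrations for 72 hours (control 1‰ DMSO). Finally, medium decanted and CCK-8 diluted 1:10 added.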

[11] = system: SAOS-2 osteosarcoma cell line; test: CCK-8 proliferation inhibition; settings: Homo sapiens, 72 hours, read-out: IC50 Steosarcoma SAOS-2
How it was run: as §2

[12] = system: MGC-803 gastric cancer cell line; test: CCK-8 proliferation inhibition
How it was run: as §2

[13] = system: HL60 acute myeloid leukemia cell line; test: CCK-8 proliferation inhibition; settings: Homo sapiens, HL-60, 72 hours
How it was run: as §2

[14] = system: A549 lung cancer cell line; test: CCK-8 proliferation inhibition
How it was run: as §2

[15] = system: MCF-7 breast cancer cell line; test: CCK-8 proliferation inhibition; settings: Homo sapiens, MCF7, 72 hours
How it was run: as §2

[16] = system: Jurkat T cell leukemia cell line; test: CCK-8 proliferation inhibition; settings: Homo sapiens, 72 hours
How it was run: as §2

[17] = system: PC3 prostate cancer cell line; test: CCK-8 proliferation inhibition; settings: 72 hours
How it was run: as §2

[18] = system: BEL-7402 liver cancer cell line; test: CCK-8 proliferation inhibition
How it was run: as §2

[19] = MIC in vitro anti-bacterial experiments, Gram-positive bacteria; settings: lowest MIC reached; read-out: minimum inhibitory concentration against Gram-positive bacteria
How it was run: as §1

[20] = system: HCT-116 colorectal cancer cell line; test: CCK-8 proliferation inhibition; settings: 72 hours, CCK-8
How it was run: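 Growth inhibition is read by CCK-8 (1:10 dilution) after 72 h of compound exposure. HCT-116 cells grow in McCoy's 5A containing 10% newborn bovine serum at 2000 cells/well, with 1‰ DMSO as vehicle control.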

[21] = concentration of 30 μM, 72 hours, 30 µM

O=C(C[C@@H](CC1CCCC1)C(=O)N1CC2(CC2)C[C@H]1C(=O)Nc1ccc(F)cn1)NO [Example 64]
Anti-bacterial activity (MIC), strain BCA 14-1 ([1]; clinical isolate BCA 14-1): 0.25 µg/mL | Anti-bacterial activity (MIC), strain BCA 14-4 ([1]; clinical isolate BCA 14-4): 1 µg/mL | Anti-bacterial activity (MIC), strain BCA 14-5 ([1]; clinical isolate BCA 14-5): 1 µg/mL | Anti-bacterial activity (MIC), strain BCA 14-6 ([1]; clinical isolate BCA 14-6): 1 µg/mL | Anti-bacterial activity (MIC), strain BCA 14-7 ([1]; clinical isolate BCA 14-7): 1 µg/mL | Anti-bacterial activity (MIC), strain BCA 14-8 ([1]; clinical isolate BCA 14-8): 0.125 µg/mL | Anti-bacterial activity (MIC), strain BCA 14-10 ([1]; clinical isolate BCA 14-10): 0.125 µg/mL | Anti-bacterial activity (MIC), strain MRSA 15-1 ([2]; clinical isolate MRSA 15-1): 0.03 µg/mL | Anti-bacterial activity (MIC), strain MRSA 15-2 ([2]; clinical isolate MRSA 15-2): 0.06 µg/mL | Anti-bacterial activity (MIC), strain MRSA 15-3 ([2]; clinical isolate MRSA 15-3): 0.03 µg/mL | Anti-bacterial activity (MIC), strain MRSA 15-4 ([2]; clinical isolate MRSA 15-4): 0.06 µg/mL | Anti-bacterial activity (MIC), strain ECO+ 15-1 ([3]; clinical isolate ECO+ 15-1): 16 µg/mL | Anti-bacterial activity (MIC), strain ECO+ 15-2 ([3]; clinical isolate ECO+ 15-2): 32 µg/mL | Anti-bacterial activity (MIC), strain ECO+ 15-3 ([3]; clinical isolate ECO+ 15-3): 16 µg/mL | Anti-bacterial activity (MIC), strain ECO+ 15-4 ([3]; clinical isolate ECO+ 15-4): 16 µg/mL | Anti-bacterial activity (MIC), strain ECO− 15-1 ([3]; clinical isolate ECO− 15-1): 16 µg/mL | Anti-bacterial activity (MIC), strain ECO− 15-2 ([3]; clinical isolate ECO− 15-2): 16 µg/mL | Anti-bacterial activity (MIC), strain ECO− 15-3 ([3]; clinical isolate ECO− 15-3): 32 µg/mL | Anti-bacterial activity (MIC), strain ECO− 15-4 ([3]; clinical isolate ECO− 15-4): 16 µg/mL | Anti-bacterial activity (MIC), strain MSSA 15-3 ([4]; clinical isolate MSSA 15-3): 0.06 µg/mL | Anti-bacterial activity (MIC), strain MSSA 15-4 ([4]; clinical isolate MSSA 15-4): 0.03 µg/mL | Anti-bacterial activity (MIC), strain MSSA 15-5 ([4]; clinical isolate MSSA 15-5): 0.03 µg/mL | Anti-bacterial activity (MIC), strain MSSA 15-6 ([4]; clinical isolate MSSA 15-6): 16 µg/mL | Anti-bacterial activity (MIC), strain EFA 15-1 ([5]; clinical isolate EFA 15-1): 32 µg/mL | Anti-bacterial activity (MIC), strain EFA 15-2 ([5]; clinical isolate EFA 15-2): 32 µg/mL | Anti-bacterial activity (MIC), strain EFA 15-3 ([5]; clinical isolate EFA 15-3): 32 µg/mL | Anti-bacterial activity (MIC), strain EFA 15-4 ([5]; clinical isolate EFA 15-4): 32 µg/mL | Anti-bacterial activity (MIC), strain EFA 15-5 ([5]; clinical isolate EFA 15-5): 32 µg/mL | Anti-bacterial activity (MIC), strain EFA 15-6 ([5]; clinical isolate EFA 15-6): 32 µg/mL | Anti-bacterial activity (MIC), strain EFA 15-9 ([5]; clinical isolate EFA 15-9): 4 µg/mL | Anti-bacterial activity (MIC), strain SPN 16-2 ([6]; clinical isolate SPN 16-2): 0.125 µg/mL | Anti-bacterial activity (MIC), strain SPN 16-4 ([6]; clinical isolate SPN 16-4): 0.125 µg/mL | Anti-bacterial activity (MIC), strain MRSE 15-1 ([7]; clinical isolate MRSE 15-1): 0.06 µg/mL | Anti-bacterial activity (MIC), strain MRSE 15-2 ([7]; clinical isolate MRSE 15-2): 0.06 µg/mL | Anti-bacterial activity (MIC), strain MRSE 15-3 ([7]; clinical isolate MRSE 15-3): 0.06 µg/mL | Anti-bacterial activity (MIC), strain MRSE 15-7 ([7]; clinical isolate MRSE 15-7): 0.06 µg/mL | Anti-bacterial activity (MIC), strain EFM 15-1 ([8]; clinical isolate EFM 15-1): 32 µg/mL | Anti-bacterial activity (MIC), strain EFM 15-2 ([8]; clinical isolate EFM 15-2): 32 µg/mL | Anti-bacterial activity (MIC), strain EFM 15-3 ([8]; clinical isolate EFM 15-3): 32 µg/mL | Anti-bacterial activity (MIC), strain EFM 15-4 ([8]; clinical isolate EFM 15-4): 1 µg/mL | Anti-bacterial activity (MIC), strain EFM 15-5 ([8]; clinical isolate EFM 15-5): 1 µg/mL | Anti-bacterial activity (MIC), strain EFM 15-6 ([8]; clinical isolate EFM 15-6): 1 µg/mL | Anti-bacterial activity (MIC), strain MSSE 15-3 ([9]; clinical isolate MSSE 15-3): 0.03 µg/mL | Anti-bacterial activity (MIC), strain MSSE 15-4 ([9]; clinical isolate MSSE 15-4): 0.06 µg/mL | Anti-bacterial activity (MIC), strain MSSE 15-5 ([9]; clinical isolate MSSE 15-5): 0.06 µg/mL | Anti-bacterial activity (MIC), strain MSSE 15-6 ([9]; clinical isolate MSSE 15-6): > 0.008 µg/mL | IC50 [10]: 11.5 µM | IC50 [11]: 2 µM | inhibition at 30 µM ([12]; Homo sapiens, MGC-803, 72 h, concentration of 30 μM): > 50% | IC50 ([12]; Homo sapiens, MGC-803, 72 hours): 6.11 µM | Inhibition of proliferation, Gastric cancer MGC-803 [12, 21]: 63% | IC50 [13]: 1.21 µM | inhibition at 30 µM ([14]; Homo sapiens, A549, 72 h, concentration of 30 μM): > 50% | IC50 ([14]; Homo sapiens, A549, 72 hours): 4.86 µM | Inhibition of proliferation, Lung cancer A549 [14, 21]: 61% | IC50 [15]: 6.62 µM | IC50 [16]: 7.61 µM | IC50 [17]: 6.17 µM | IC50 ([18]; Homo sapiens, Bel-7402, 72 hours): 5 µM | Inhibition of proliferation, Liver cancer BEL-7402 [18, 21]: 81% | MIC [19]: < 0.008 µg/mL | IC50 ([20]; Homo sapiens, HCT-116): 4.88 µM | HCT116 inhibition rate/% ([20]; concentration of 30 μM, 30 µM): 87%
